# Values joined by “and” are separate entries in the source; they are usually repeats but may differ in a detail not shown here. Equal values may be shown once.
# Experiments:
# [1] = intravenous; cited from earlier work
# [2] = Systemic (intraperitoneal) delivery of Cy5-TFO-3 to mouse TG, fluorescence imaging; assay type: in vivo, Balb/c mice; conditions: 167 mcg intraperitoneal, 6 or 24 hours after injection
# Description: Cy5-labeled TFO-3 (SEQ ID 2) was then synthesized and HPLC purified. 167 mcg of Cy5-TFO-3 (SEQ ID 2) was then systemically administered via an intraperitoneal injection into uninfected and latently infected Balb/c mice. The animals were sacrificed and dissected 6 or 24 hours after injection and the TG's imaged under a red laser light source (680 nm). An uninjected, uninfected mouse was also imaged as a control for autofluorescence (nil). Fluorescence of Cy5 was detectable in the TG's of Cy5-labeled TFO-3 (SEQ ID 2) treated mice.
# [3] = tested on: HSV-1; assay: HSV-1 plaque reduction on Vero cells after incubation with TFO and ultraviolet-A radiation; conditions: for viral titer as percent of the unirradiated virus only control: 1 μM TFO
# Description: Viral titers were determined by plaque counts on Vero cell monolayers.
# 3000 PFU/ml of HSV-1 were incubated with 1 μM TFO-3 (SEQ ID 2) at room temperature, N=5 replications per group. Viral killing (as measured by plaque-reduction) was effected by exposing the mixture to ultraviolet-A radiation for 0, 20 and 40 minutes at room temperature. HSV-1 titers were determined by plaque assay on Vero cells. […] The results were calculated as a percent of the unirradiated (0 min.) “virus only” control titers±SEM. Statistical comparisons were made between the “virus only” and “virus+TFO-3 (SEQ ID 2)” groups at each time point using an unpaired two-tailed Student's T-Test.
# 3000 PFU/ml of HSV-1 was incubated with 1 μM TFO-3 (SEQ ID 2) or a (scrambled) control oligonucleotide. Viral killing was affected by exposing the mixture to ultraviolet-A radiation for 40 min. Results are expressed as percent of the “virus only” control titers±SEM. Statistical comparisons were made to the “virus only” group using the two-tailed Student's T-Test.
# HSV-1 was incubated with 1 μM TFO-3 (SEQ ID 2) with and without exposure to ultraviolet-A radiation for 40 minutes at room temperature. Results are expressed as mean viral titers±standard errors. Statistical comparisons were made using the two-tailed Student's T-Test.
# All the groups were exposed to ultraviolet-A radiation for 40 minutes at room temperature. Results are expressed as mean viral titers ±standard error of the mean. Statistical comparisons were made using the two-tailed Mann-Whitney test for non-parametric data.
# [4] = tested on: HSV-1 LAT target sequence duplex; assay: Triplex formation in vitro (native polyacrylamide gel); assay type: binding
# Description: The target sequence bound by TFO-3 (SEQ ID 2) yielded a relatively clean duplex when end-labeled with ^32P and allowed to anneal to its purine complement. One fmole […] [The absolute amount of target DNA was one femtomole=1×10^−15 moles placed in solution to a concentration of 1.0 nM=1.0 nanomoles/liter] of this duplex was then incubated at 37 degrees C. with increasing concentrations of the […] in a binding buffer containing 10 mM Tris, pH 7.5, 1 mM spermine, 20 mM KCl, and 10% sucrose, according to a published protocol. The DNA complexes—single-strand, double-strand, and triplex—were separated in a native polyacrylamide gel. Triplex DNA complex formation was detected at a triplex:duplex ratio of 10:1. Triplex formation was virtually complete at a triplex:duplex ratio of 100:1, corresponding to a triplex oligonucleotide concentration of 100 nM, consistent with other reports in the literature and below that believed to be achievable in vivo.
# [5] = tested on: TG neurons; assay: Movement of 32P-labeled TFO-3 into rat TG neuron cultures; assay type: cell-based
# [6] = tested on: HSV-1 Target-3 reporter construct C2A; assay: Luciferase reporter transcription inhibition, construct C2A in HEK-293; assay type: cell-based, human; conditions: HEK-293, 1 or 10 μM TFO, 24 hours
# [7] = tested on: parent (control) reporter construct pGL3; assay: Luciferase reporter transcription inhibition, parent construct pGL3 in HEK-293; assay type: cell-based, human; conditions: HEK-293, 1 or 10 μM TFO, 24 hours, construct lacking HSV-1 target sequence
# [8] = tested on: TG neurons; assay: Ex vivo delivery of TFO-3 to latently infected mouse TG; conditions: 42 micromolar, 1.5 hrs ex vivo
# Description: Ex vivo delivery of TFOs was then performed by incubating latently infected mouse TG ex vivo for 1.5 hrs in a 42 micromolar solution of TFO-3.
# [9] = Example 9, 1 μM, UVA 40 minutes
# [10] = 0.5 nM starting concentration, +20 ng/ml NGF
compound,measurement,setting,value
Nc1nc2c(ncn2COCCO)c(=O)[nH]1 [Acyclovir],steady-state trough concentration,[1],2 μg/ml and 8 μM
"Cy5-labeled TFO-3: TFO-3 (SEQ ID 2) labeled with Cy5, HPLC purified (GGGAGGAGGGAGGGAAGGAGGGGG; DNA, backbone not given here; Cy5 label attached, triplex-forming oligonucleotide, further chemistry not fully specified)",fluorescence of Cy5 in the TG's,[2],detectable
"TFO-1: purine motif triplex-forming oligonucleotide binding a target site in the HSV-1 LAT domain, SEQ ID 1 (GAAGAGGGGGGGGGGAAGAAG; DNA, backbone not given here)",antiviral effect,[3]; [9],no measurable antiviral effect
"TFO-3: purine motif triplex-forming oligonucleotide binding a target site in the HSV-1 LAT domain, SEQ ID 2 (GGGAGGAGGGAGGGAAGGAGGGGG; further chemistry not given here)",TFO concentration at which triplex formation is virtually complete,"[4]; 37 degrees C., target duplex 1.0 nM",100 nM
same,TFO concentration at which triplex formation begins,[4]; HSV-1 LAT target,10 nM
same,average cellular oligonucleotide (32P) concentration,[5]; [10],95 nM
same,average oligonucleotide (32P) concentration in the supernatants,[5]; [10],0.44 nM
same,uptake into the neurons,"[5]; 0.5 nM, 2, 6 or 24 hours",progressively taken up
same,luciferase production,[6],significantly inhibited
same,luciferase production,[7],did not inhibit
same,fluorescence in TG neurons,[8],Intense red fluorescence
same,viral titer as percent of the unirradiated virus only control,[3]; UVA 0 min,approximately 80%
same,viral titer as percent of the unirradiated virus only control,[3]; UVA 20 min,approximately 50%
same,viral titer as percent of the unirradiated virus only control,[3]; UVA 40 min,~30%
same,percent of virus only control viral titer,"[3]; Example 7, strain 17 syn+, 1 μM, UVA 40 min",approximately 20%
same,viral killing (plaque-reduction) added to that of UVA alone,"[3]; Example 8, 1 μM, UVA 40 minutes",40%
same,reduction of viral titers,[3]; [9],45%

# Reference: patent US7407752B2, “Oligonucleotide complexes for use as anti-viral therapeutics” (priority 2003, dated 2008)
